The values that follow come from patent US10723716B2, “Alpha-helix mimetics as modulators of Abeta self-assembly” (New York University, priority 2016, dated 2020).

SMILES strings stand for the structures. Entries after “also recorded” stand apart in the source; their conditions may differ.

Data set [1] addresses T1, Aβ42 (Homo sapiens, UniProt P05067).
T1 construct: Cleavage of APP results in several Aβ isoforms; The predominant species are Aβ42 and Aβ40; purchased Anaspec (Fremont, Calif., USA)
As to the kind of experiment: ThT-based kinetic assay of Aβ42 aggregation. The format is biochemical. The conditions noted are these: for factor by which Aβ42 aggregation is delayed (rel. t50): 20 μM Aβ42, equimolar ratio; for effect on Aβ42 oligomerization/fibrillation (ThT): equimolar ratio. An excerpt:
The aggregation of Aβ42 was monitored using an established exogenous dye, Thioflavin T (ThT) that intercalates between the amyloid fibers along the perpendicular axis without affecting the kinetics of amyloid formation. (see Wolfe, L. S.; Calabrese, M. F.; Nath, A.; Blaho, D. V.; Miranker, A. D.; Xiong, Y. Proc. Natl. Acad. Sci. U.S.A. 2010, 107, 16863-16868; Levine, H. Protein Sci. 1993, 2, 404-410). A representative ThT-based kinetic assay results are depicted in FIG. 2. The oligomerization reaction of Aβ42 was initiated by diluting a 1 mM stock solution of Aβ42 (in DMSO) to a concentration of 20 μM in phosphate buffer (150 mM KCl, 50 mM NaPi, pH 7.4). Aβ42 fibrillation is a nucleation-dependent polymerization process and is characterized by a sigmoidal curve consisting of a lag phase, an elongation phase, and a plateau phase (FIG. 2a). The kinetic reaction was quantified by extracting t50, which is the time required to reach 50% of the maximum fluorescence that results from fibrillation. Under standard conditions the tso for Aβ42 fibrillation was 2.1±0.2 h (FIG. 2a and FIG. 8).
(§1) Kinetic assays were conducted on a FlexStation 3 Multi-Mode Microplate reader from Molecular Devices (Sunnyvale, Calif., USA). Experiments were conducted in triplicate in a 96-well plate with a final volume of 200 μL per well. Every measurement was an average of 50 readings. The aggregation of an amyloidogenic peptide (Aβ40, Aβ42, or IAPP) was initiated by the addition of the peptide from a stock solution (in DMSO, 0.5-1 mM) to phosphate buffer. The final concentration of each peptide was different based on their aggregation. The stoichiometry of ThT dye for each peptide was 0.5:1 (ThT:peptide). Peptide aggregation was monitored by ThT fluorescence (λex=445 nm and λem=485 nm). The blank sample contained all the components of the peptide samples except the peptide. The sample data were processed by subtracting the fluorescence of the blank sample. The fluorescence intensity data was then normalized by setting the maximum value to 1.
(§2) Kinetic assays in the presence of the compounds of the invention were conducted under the same conditions. The small molecules were added from a stock solution (1 mM or 10 mM in DMSO) to keep the final concentration of DMSO less than 1.0% (v/v). Small molecules were added to the wells with ThT and buffer and mixed gently with a pipette before adding the peptide. To keep the conditions identical, an equal amount of DMSO was added to the wells with the peptide-only control reactions.
(§3) Kinetic profiles were processed using Origin (version 9.1). Kinetic curves were fit using the built-in sigmoidal fit. Each run was fit independently to extract the t50 (time required to reach 50% of the maximum fluorescence intensity). Error bars represent standard deviations from the mean of at least three independent experiments.
In the delayed addition experiments, where the oligopyridylamides were added at various time points during Aβ amyloid reaction, the conditions were same (as used for the assays where Aβ was preincubated with the oligopyridylamides). The Aβ oligomerization process was initiated by dissolving Aβ into buffer solution and then oligopyridylamides were added to this solution at indicated time points (depend on the assay) at an equimolar ratio.

The test system of data set [2] is Neuro-2a cells. As to the kind of experiment: Effect of compound alone on Neuro-2a cell viability. The data set is classed as cell-based, mouse. The conditions noted are these: matched cytotoxic experimental conditions, no Aβ42. On the procedure:
To investigate the toxic effect of the peptide alone on cell viability, solution (B) without the oligopyridylamide compound was mixed with solution (A), while the effect of the oligopyridylamide compound alone was determined by adding solution (A) without peptide to solution (B). The effect of oligopyridylamides on seed-catalyzed Aβ42 aggregation was probed by preparing an additional solution (C) containing 0.5 μM seeds. The volume contributed by solution (C) was taken into account in preparing solution (B). Solution (C) was mixed with solution (B), and the resulting mixture was then added to solution (A) shortly before addition to the wells. To study the effect of oligopyridylamides on the oligomeric states of Aβ42, solution (A) was mixed with solution (B) without inhibitor and incubated at room temperature for 1, 2 or 3 h. Subsequently, 50 μM oligopyridylamides was added to the mixture, which was then immediately added to the cells. […] The MTS reagent was incubated for 2.5 h at 37° C., and absorbance of the soluble formazan product (λ=490 nm) of MTS reduction was measured on a Synergy H1MF Multi-Mode microplate-reader (BioTek, Winooski, Vt., USA), with a reference wavelength of 650 nm to subtract the background. Wells treated with a solution containing serum-free DMEM, 200 μM NaOH, 0.1×PBS and 0.5% (v/v) DMSO served as control. MTS reduction was determined from the ratio of the absorbance of the treated wells to the control wells. Each data point represents an average of four independent quadruplet-well trials.

Data set [3] has as its system Aβ42 mediated toxicity in mouse neuroblastoma (N2a) cells. As to the kind of experiment: Aβ42 mediated toxicity in Neuro-2a cells (MTS cell viability). The data set is classed as cell-based. The conditions noted are these: for effect on Aβ42 mediated cytotoxicity: equimolar ratio, Neuro-2a cells; for rank order for the antagonist activity: Aβ42 mediated cytotoxicity and aggregation, 5 μM, 1:1 (FIG. 26a). Here is the method: Cell viability was determined using a CellTiter 96® AQueous One Solution Cell Proliferation Assay (MTS) kit (Promega), which measures the reduction of the tetrazolium compound MTS (3-(4,5-dimethylthiazol-2-yl)-5-(3-carboxymethoxyphenyl)-2-(4-sulfophenyl)-2H-tetrazolium, inner salt) to soluble formazan by mitochondrial dehydrogenase enzyme in living cells. Formazan can be measured at 490 nm according to the manufacturer's instructions.
Neuro-2a cells (ATCC® […]) were maintained in serum-containing media [Dulbecco's Modified Eagle's Medium—high glucose (DMEM, Sigma) supplemented with 10% foetal bovine serum (FBS), 4 mM L-Glutamine (Sigma), and 1% penicillin/streptomycin (Sigma)] in 5% CO2 at 37° C. Once the cells reached ˜95% confluence, they were split (using 0.25% trypsin-EDTA, Sigma, St. Louis, USA), seeded at a density of 5×10^3 cells/well in 100 μL complete medium in 96-well plates and cultured for 48 h. Thereafter, the media was removed, the cells washed with phosphate buffered saline (PBS), and 90 μL of serum-free DMEM was added to the wells. A solution (A) containing 50 μM Aβ42 in NaOH (pH 10.5) was prepared and kept on ice, and a solution (B) containing 50 μM of the oligopyridylamide compound, H2O (2.33 μL/well) and 1× and 10×PBS was prepared and kept at room temperature. The solutions were combined, vortexed and 10 μL of this solution immeadiatly added to each well. The final concentrations in the wells were: 5 μM Aβ42, 5 μM oligopyridylamide, 200 μM NaOH, 0.1×PBS and 0.5% (v/v) DMSO.
To investigate the toxic effect of the peptide alone on cell viability, solution (B) without the oligopyridylamide compound was mixed with solution (A), while the effect of the oligopyridylamide compound alone was determined by adding solution (A) without peptide to solution (B). The effect of oligopyridylamides on seed-catalyzed Aβ42 aggregation was probed by preparing an additional solution (C) containing 0.5 μM seeds. The volume contributed by solution (C) was taken into account in preparing solution (B). Solution (C) was mixed with solution (B), and the resulting mixture was then added to solution (A) shortly before addition to the wells. To study the effect of oligopyridylamides on the oligomeric states of Aβ42, solution (A) was mixed with solution (B) without inhibitor and incubated at room temperature for 1, 2 or 3 h. Subsequently, 50 μM oligopyridylamides was added to the mixture, which was then immediately added to the cells. After culturing for 72 h in 5% CO2 at 37° C., 20 μL of MTS reagent was added to each well. The MTS reagent was incubated for 2.5 h at 37° C., and absorbance of the soluble formazan product (λ=490 nm) of MTS reduction was measured on a Synergy H1MF Multi-Mode microplate-reader (BioTek, Winooski, Vt., USA), with a reference wavelength of 650 nm to subtract the background. Wells treated with a solution containing serum-free DMEM, 200 μM NaOH, 0.1×PBS and 0.5% (v/v) DMSO served as control. MTS reduction was determined from the ratio of the absorbance of the treated wells to the control wells. Each data point represents an average of four independent quadruplet-well trials.

The target of data set [4] is T1, Aβ42. As to the kind of experiment: ThT-based kinetic assay of Aβ42 aggregation. The conditions noted are these: 5 μM, 1:1 (Ligand:Aβ42); without ligand 100%. The data set is classed as biochemical.
Data set [5] concerns the target T2, IAPP (Homo sapiens, UniProt P10997).
T2 construct: purchased Anaspec (Fremont, Calif., USA)
T2 sequence (P10997 34-70 limits assumed): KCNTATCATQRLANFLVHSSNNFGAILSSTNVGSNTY
As to the kind of experiment: ThT-based kinetic assay of IAPP aggregation. The format is biochemical. The settings on record: equimolar ratio (IAPP 10 μM, FIG. 25c, 26c, 27m). Here is the method: as §1, §2, §3

Data set [6] has as its system IAPP mediated toxicity in rat INS-1 cells. In words: IAPP mediated toxicity in INS-1 cells. The settings on record: equimolar ratio, rat INS-1 cells. The format is cell-based.

T1 sequence (P05067 672-713 limits assumed): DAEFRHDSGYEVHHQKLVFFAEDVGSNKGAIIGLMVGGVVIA

Consider `COC(=O)c1ccc(NC(=O)c2ccc(NC(=O)c3ccc([N+](=O)[O-])c(OCCCN)n3)c(OCCCN)n2)c(OCCCN)n1` [ADH-19], for which, in data set [1], the “factor by which Aβ42 aggregation is delayed (rel. t50)” value (from here on “factor”) came out at 3.2±0.3 and the “effect on Aβ42 oligomerization/fibrillation (ThT)” value was “effective in blocking”.

`COC(=O)c1ccc([N+](=O)[O-])c(OCCCN)n1` [ADH-3]: in data set [1], the “effect on Aβ42 oligomerization/fibrillation (ThT)” value is given as “No noticeable effect”.

As to `CCCCCCOc1nc(C(=O)Nc2ccc(C(=O)Nc3ccc(C(=O)OC)nc3OCCCN)nc2OCc2ccccc2)ccc1[N+](=O)[O-]` [ADH-52], the “toxicity of compound alone to Neuro-2a cells” value (shortened to “toxicity of compound alone”) in data set [2] is “not toxic”. Further, the “effect on Aβ42 mediated cytotoxicity” value in data set [3] was “effective at rescuing cells”.

For `COC(=O)c1ccc([N+](=O)[O-])c(OC2CCCCC2)n1` [ADH-5], the “effect on Aβ42 oligomerization/fibrillation (ThT)” value in data set [1] was “No noticeable effect”.

As for `CCOc1nc(C(=O)Nc2ccc(C(=O)Nc3ccc(C(=O)OC)nc3OCCCN)nc2OCCCN)ccc1[N+](=O)[O-]` [ADH-45A], the “toxicity of compound alone” value in data set [2] was “not toxic”. Moreover, the “rank order for the antagonist activity” value in data set [3] is listed as “ADH41>ADH46>ADM-40≥ADM-45A”.

As to `COC(=O)c1ccc(NC(=O)c2ccc([N+](=O)[O-])c(OCc3ccccc3)n2)c(OCCCN)n1` [ADH-43], in data set [1], the “factor” value is listed as 3.3±0.4 and the “effect on Aβ42 oligomerization/fibrillation (ThT)” value is “effective in blocking”.

On to `COC(=O)c1ccc(NC(=O)c2ccc([N+](=O)[O-])c(OCCCN)n2)c(OCCCN)n1` [ADH-44], for which the “factor” value in data set [1] is 2.4±0.3.

As to `CCCCOc1nc(C(=O)Nc2ccc(C(=O)Nc3ccc(C(=O)OC)nc3OCCCN)nc2OCCCN)ccc1[N+](=O)[O-]` [ADH-40], the “toxicity of compound alone” value in data set [2] was “not toxic”. Also, the “rank order for the antagonist activity” value in data set [3] is recorded as “ADH41>ADH46>ADM-40≥ADM-45A”.

Turning to `COC(=O)c1ccc(NC(=O)c2ccc(NC(=O)c3ccc([N+](=O)[O-])c(OC(C)C)n3)c(OCc3ccccc3)n2)c(OCCCN)n1` [ADH-39], the “effect on Aβ42 oligomerization/fibrillation (ThT)” value in data set [1] is “accelerated”. Also, in data set [2], the “toxicity of compound alone” value is reported as “not toxic”. The “effect on Aβ42 mediated cytotoxicity” value in data set [3] was “effective at inhibiting cytotoxicity; also recorded: effective at rescuing cells; also recorded: equally effective”.

In the case of `COC(=O)c1ccc(NC(=O)c2ccc(NC(=O)c3ccc([N+](=O)[O-])c(OCc4ccccc4)n3)c(OCC(=O)O)n2)c(OCC(=O)O)n1` [ADH-27], the “toxicity of compound alone” value in data set [2] is “not toxic”.

On to `COC(=O)c1ccc(NC(=O)c2ccc(NC(=O)c3ccc([N+](=O)[O-])c(OCCCN)n3)c(OCc3ccccc3)n2)c(OCCCN)n1` [ADH-37], for which, in data set [1], the “effect on Aβ42 oligomerization/fibrillation (ThT)” value is “weak inhibitor”. In addition, in data set [3], the “effect on Aβ42 mediated cytotoxicity” value is on record as “did not have a noticeable effect”. Besides, the “ThT fluorescence intensity of the amyloid reaction” value in data set [4] was found to be 74%.

Consider `COC(=O)c1ccc(NC(=O)c2ccc(NC(=O)c3ccc([N+](=O)[O-])c(OCC(C)C)n3)c(OCCCN)n2)c(OCCCN)n1` [ADH-46], for which, in data set [3], the “rank order for the antagonist activity” value was “ADH41>ADH46>ADM-40≥ADM-45A” and the “effect on Aβ42 mediated cytotoxicity” value was “effective at rescuing cells”.

Consider `COC(=O)c1ccc(NC(=O)c2ccc(NC(=O)c3ccc([N+](=O)[O-])c(OCC(=O)O)n3)c(OCc3ccccc3)n2)c(OCC(=O)O)n1` [ADH-17], for which, in data set [1], the “effect on Aβ42 oligomerization/fibrillation (ThT)” value is “no effect”. Moreover, the “effect on IAPP fibrillation / amyloid formation (ThT)” value in data set [5] was “completely inhibits”. The “effect on IAPP mediated toxicity” value in data set [6] is “completely inhibits”. For the same compound, the “toxicity of compound alone” value in data set [2] is listed as “not toxic”. In addition, in data set [3], the “effect on Aβ42 mediated cytotoxicity” value is on record as “no effect”.
